Data as given in patent US20100204460A1, “NATURAL BRASSINOSTEROIDS FOR USE FOR TREATING HYPERPROLIFERATION, TREATING PROLIFERATIVE DISEASES AND REDUCING ADVERSE EFFECTS OF STEROID DYSFUNCTION IN MAMMALS, PHARMACEUTICAL COMPOSITION AND ITS USE” (priority 2007, published 2010).

Columns and labels:
Format in all cases: cell-based
[1] = system: T-lymphoblastic leukaemia cell line CEM; assay: Calcein AM cytotoxicity assay, CEM; settings: CEM; six 4-fold dilutions, exposure 72 h (b71 says 96 h); mean ± SD; read-out: IC50 assessed by Calcein AM assay of surviving cells
DU-145 cells = assay: Western blot of cell cycle and apoptosis related proteins, DU-145; settings: for MDM-2 level (Western blot) / anti-apoptotic protein Bcl-2 expression (Western blot): IC50 for 6, 12, 24 h vs untreated control; for p53 expression (Western blot): vs untreated control
Procedure: The cells were seeded in a density 1.6×10^4 cells/cm^2 (LNCaP), 1.4×10^4 cells/cm^2 (DU-145, MDA-MB-468 and MCF-7) using culture medium in 100-mm culture Petri dishes. After reaching of 70-80% confluence, the cells were treated with tested compounds 9 in concentration IC50 that were evaluated by MTT analysis described above. DMSO was used as a vehicle for controls. After 6, 12 and 24 h treatment, the cells were washed with cold PBS and scraped in ice-cold protein extract ion buffer (50 mM HEPES, pH 7.5; 150 mM NaCl; 1 mM EDTA; 2.5 mM EGTA; 10% glycerol; 0.1% Tween 20) with protease and phosphatase inhibitors (25 μL/mL phenylmethanesulphonyl fluoride; 2.5 μL/mL leupeptin; 0.1 mM Na3VO4; 2.5 μL/mL aprotinin; 10 mM β-glycerol-phosphate; 1 mM dithiothreitol). The lysates were collected into microfuge tube and incubated on ice for 1 h. Cells were incubated 60 min at 4° C. under time by time shaking in protein extraction buffer. After centrifugation at 45 000×g for 30 min at 4° C., supernatant was collected, aliquoted, and stored at −80° C. The protein content in the lysates was measured by a Bredford assay (Bio-Rad Laboratories, Hercules, Calif., USA) according to the manufacture's protocol.
For Western blot analysis, equal aliquots of proteins (15-30 μg/well) were loaded on 10% or 12% SDS-PAGE gels and transferred onto nitrocellulose membranes (Amersham Biosciences, Vienna, Austria) by semi-dry electrophoretic transfer. Coloured marker (Rainbow™, Amersham Biosciences, Vienna, Austria) was used as a protein molecular weight standard. The non-specific binding sites were blocked by incubating the blot with 5% (w/v) non-fat dry milk in PBS for 2 h. The blot was incubated overnight in 4° C. with appropriate primary antibody that detects the protein epitope of interest and finally washed in PBS with 0.1% Tween 20 for 1 h. The blot was incubated with the diluted secondary goat anti-mouse IgG-horseradish peroxidase conjugated antibody (dilution 1:6000, Santa Cruz Biotechnology, Santa Cruz, Calif., USA) or goat anti-rabbit IgG-horseradish peroxidase conjugated antibody (dilution 1:2000, DakoCytomation, Glostrup, Denmark) for 45 min in 4° C. The membrane was washed in PBS with 0.1% Tween 20 for 1 h. The proteins were detected using a chemiluminescence detection system (Amersham Biosciences, Vienna, Austria) according to the protocol provided by the manufacturer. Equality of loaded proteins was confirmed by Ponceau S membrane staining (Sigma, St. Louis, Mo., USA) and by detection of anti-tubulin-α or anti-mcm-7 antibodies. The experiments were repeated three times. The protein expressions in treated cells were compared to untreated controls.
Western blot analysis was used to detect changes in apoptosis related protein expression in breast and prostate cancer cell lines. […] This decreased expression of Bid can indicate a cleavage of the protein after treatment by BRs. In DU-145 cell line, expression of pro-apoptotic proteins Bax and Bid was unchanged. […] On the other hand, caspase cleavage was not found in DU-145 cells. Poly-(ADP-ribose) polymerase (PARP) positive expression in controls of prostate cancer cell lines was observed but brassinosteroids had no effect on its expression nor on its degradation within the period 6/12/24 h (FIG. 6B).

MCF-7 cells = assay: Cell cycle distribution by flow cytometry, MCF-7; settings: IC50, 24 h; for Cell cycle distribution S: control 14%; for Apoptosis subG1 fraction: control 17%; for Cell cycle distribution G2/M: control 26%; for Cell cycle distribution G1: control 60%
Text: In the MCF-7 breast cancer cell line that has been the most widely studied experimental cell system, the typical growth inhibitory response to antiestrogens is decrease in the proportion of cells synthesising DNA (S phase) after antiestrogen treatment. This decrease in S phase coincides with an increase in the proportion of cells in G0/G1 phase. The activity of the androgen receptor (AR) is also regulated by alterations in cell signaling. There has been reported ligand independent activation of AR in prostate cancer cells by different growth factors. As the AR can be activated in the absence of hormone, it appears that the conditions may be more restricted than those observed for ER. Use of physiologic doses of ligand (dihydrotestosterone, DHT) is of importance as the LNCaP cells proliferate only at DHT concentration of 10^−9 M or lower. […] In contrast to proliferation, transactivation of AR specific target genes (e.g. PSA) continues to increase with DHT doses of 10^−10 M and higher. It might be accepted for estrogen or androgen receptors as stronger cytotoxic activities of brassinosteroids 9 or 6 on hormone-sensitive (MCF-7, LNCaP) compared to hormone-insensitive (MDA-MB-468, DU-145) cell lines were found. Therefore we explored the possibility of cell cycle perturbation by BRs in different cancer cell lines. Flow cytometry was used to evaluate the number of cells in the particular phases of the cell cycle, including subG1 peak detection. Control and treated cells were washed twice with cold PBS and centrifuged at 360×g for 10 min at 4° C., and fixed with chilled ethanol (70%; v/v) by low-speeded vortexing. For detection of DNA content analysis, propidium iodide staining was used. The cells were analyzed using a FACSCalibur flow cytometer (BD Biosciences, San Jose, Calif.).
Flow-cytometric detection of apoptosis. Several studies have declared that the induction of apoptosis may be cell cycle-dependent. Therefore, in our next series of experiments, we tested if brassinosteroids 9 or 6 cause apoptosis of the breast and prostate cancer cells via cell cycle blockage. From this reason we carried out DNA cell cycle analysis by flow cytometry based on detection of endonucleolytic DNA degradation that results in extraction of low molecular weight DNA from the cells. […] The subG1 peak containing apoptotic bodies was however not observed in MCF-7 cells.

SMILES | IC50 [1] [µM] | MDM-2 level (Western blot) (DU-145 cells) | anti-apoptotic protein Bcl-2 expression (Western blot) (DU-145 cells) | p53 expression (Western blot) (DU-145 cells) | Cell cycle distribution S (MCF-7 cells) [%] | Apoptosis subG1 fraction (MCF-7 cells) [%] | Cell cycle distribution G2/M (MCF-7 cells) [%] | Cell cycle distribution G1 (MCF-7 cells) [%]
CC(C)[C@@H](C)[C@@H](O)[C@H](O)[C@@H](C)[C@H]1CC[C@H]2[C@@H]3COC(=O)[C@H]4C[C@H](O)[C@H](O)C[C@]4(C)[C@H]3CC[C@]12C [Brassinosteroid 6, 24-Epibrassinolide] | 44 ± 2.2 | decreased level of MDM-2 in all time points | decreased after treatment with 9 (6, 12 and 24 h) or 6 (6 and 24 h) | no p53 expression changes | 7 | 13 | 12 | 81
CC[C@@H](C(C)C)[C@@H](O)[C@H](O)[C@@H](C)[C@H]1CC[C@H]2[C@@H]3CC(=O)[C@H]4C[C@H](O)[C@H](O)C[C@]4(C)[C@H]3CC[C@]12C [Brassinosteroid 9, 28-Homocastasterone] | 13 | decreased level of MDM-2 in all time points | decreased after treatment with 9 (6, 12 and 24 h) | no p53 expression changes | 11 | 15 | 9 | 80
